What was measured:
[1] = Cytotoxicity against human SH-SY5Y cells assessed as reduction in cell viability incubated for 48 hrs by MTT assay; type: toxicity, cell-based
[2] = Cytotoxicity against HEK293 cells assessed as reduction in cell viability incubated for 48 hrs by MTT assay; type: toxicity, cell-based; conditions: human
[3] = Cytotoxicity against human L02 cells assessed as reduction in cell viability incubated for 48 hrs by MTT assay; type: toxicity, cell-based
[4] = test system: SH-SY5Y; test: Neuroprotective activity against MPP+-induced human SH-SY5Y cells assessed as reduction in cell death at 0.08 to 5 uM measured after 48 hrs by MTT assay relative to control; type: functional; set-up: scale not given: the % may be the effect or the level left; conditions: dose 0.08-5 µM
[5] = test system: SH-SY5Y; test: Neuroprotective activity against MPP+-induced human SH-SY5Y cells assessed as reduction in cell death at 5 uM measured after 48 hrs by MTT assay relative to control; type: functional; set-up: scale not given: the % may be the effect or the level left

Row | Structure (SMILES) | IC50 at 48 h [1] [µM] | IC50 at 48 h [2] [µM] | IC50 at 48 h [3] [µM] | Activity [4] [%] | Activity [5] [%]
1 | Cc1ccc(C(=O)Nc2cc(-c3cnn(C)c3)cc(C(F)(F)F)c2)cc1Nc1cccc2c1C(=O)C(=O)N2C | > 80 | > 80 | > 80 | – | –
2 | Cc1cn(-c2cc(NC(=O)c3ccc(C)c(Nc4nccc(-c5cccnc5)n4)c3)cc(C(F)(F)F)c2)cn1 [NILOTINIB] | – | 8.2 | 37 | 6.9 | 20
3 | Cc1ccc(C(=O)Nc2ccc(CN3CCN(C)CC3)c(C(F)(F)F)c2)cc1Nc1cccc2c1C(=O)C(=O)N2C | 23.6 | 16.6 | > 80 | – | –
